In patent US9247759B2, “Identification of human T2R receptors that respond to bitter compounds that elicit the bitter taste in compositions, and the use thereof in assays to identify compounds that inhibit (block) bitter taste in compositions and use thereof” (SENOMYX, INC., priority 2007, dated 2016):
Read-outs that look alike come from different tables or passages of the source.

What was measured:
[1] = target: T1, hT2R14 (Homo sapiens (Human), UniProt Q9NYV8); assay: hT2R14 antagonist high-throughput FLIPR assay, stable cell line with G16g44, agonist aristolochic acid; format: cell-based
How it was run: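 HEK293 cells stably expressing hT2R14 with chimeric G16g44 were stimulated with aristolochic acid (3 μM), giving 70-80% of maximal receptor activity. Test compounds were added together with the agonist, and antagonism was read as fluorescent calcium signal on FLIPR.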

[2] = target: hT2R3 (Homo sapiens (Human), UniProt Q9NYW6); assay: hT2R panel inhibition, transient HEK293 G16g44, agonist Chloroquine pH6.5 50 μM; format: cell-based; details: HEK293, compound at 25 μM
How it was run: (§1)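 Here, inhibition reflects how much the test compound lowers activation of a transiently expressed human bitter receptor stimulated at EC80. Twenty-two such receptors were tested separately.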

[3] = target: hT2R5 (Homo sapiens (Human), UniProt Q9NYW4); assay: hT2R panel inhibition, transient HEK293 G16g44, agonist Picoline 10 mM; format: cell-based; details: HEK293, compound at 25 μM
How it was run: as §1

[4] = target: hT2R7 (Homo sapiens (Human), UniProt Q9NYW3); assay: hT2R panel inhibition, transient HEK293 G16g44, agonist Chloroquine pH6.5 10 mM; format: cell-based; details: HEK293, compound at 25 μM
How it was run: as §1

[5] = target: hT2R10 (Homo sapiens (Human), UniProt Q9NYW0); assay: hT2R panel inhibition, transient HEK293 G16g44, agonist Strychnine 50 μM; format: cell-based; details: HEK293, read-out: screening result against bitter receptor 10, compound at 25 μM; receptor activated to EC80 with the corresponding agonist
[6] = target: hT2R13 (Homo sapiens (Human), UniProt Q9NYV9); assay: hT2R panel inhibition, transient HEK293 G16g44, agonist Oxyphenonium 1 mM; format: cell-based; details: HEK293, compound at 25 μM
Description: Specifically, in order to evaluate the inhibitory selectivity of the Compound C compound, this compound was tested against 22 human T2Rs which were deorphaned by Senomyx. These receptors and the bitter ligands that activate these human T2Rs are reported in earlier patent applications which are incorporated by reference herein. These 22 human T2Rs are hT2R1, 3, 4, 5, 7, 8, 9, 10, 13, 14, 16, 44, 51, 54, 55, 61, 63, 64, 65, 67, 71 and 75. The amino acid and nucleic acid sequences of all of these T2Rs may be found in these earlier patent applications. These human T2Rs were each individually transiently transfected into HEK293 cells that stably express the promiscuous G protein G16g44 and functional assays were effected using these receptors as disclosed in these same patent applications. […] The ligands were used at EC80 concentration levels. The list of bitter ligands utilized and the tested ligand concentrations are contained in Table 5 of this example.
Relating to the foregoing, FIG. 5 contains experimental results wherein Compound C was tested with different agonist compounds. The inhibition activity is represented by the reduction of receptor activity in the presence of Compound C. […] These 13 hT2Rs are hT2R3, 7, 10, 14, 16, 44, 51, 55, 61, 63, 64, 65, and 71.

[7] = target: T1, hT2R14; assay: hT2R panel inhibition, transient HEK293 G16g44, agonist Aristolochic Acid 2 μM; format: cell-based; details: HEK293, compound at 25 μM
How it was run: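 Each hT2R was transiently transfected into HEK293 cells stably expressing G16g44 and assayed functionally for inhibition of agonist response. Agonists were applied at EC80: andrographolide at 0.5 mM for hT2R8 and aristolochic acid at 2 μM for hT2R14.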

[8] = target: hT2R16 (Homo sapiens (Human), UniProt Q9NYV7); assay: hT2R panel inhibition, transient HEK293 G16g44, agonist Salicin 1 mM; format: cell-based; details: HEK293, compound at 25 μM; receptor activated to EC80 with the corresponding agonist; read-out: screening result against bitter receptor 16
How it was run: as §1

[9] = system: hT2R44; assay: hT2R panel inhibition, transient HEK293 G16g44, agonist Denatonium 0.5 μM; format: cell-based, human; details: compound at 25 μM; for screening result against bitter receptor 44: receptor activated to EC80 with the corresponding agonist
How it was run: as §1

[10] = target: hT2R51 (Homo sapiens (Human), UniProt P59533); assay: hT2R panel inhibition, transient HEK293 G16g44, agonist Prop 2.5 μM; format: cell-based; details: HEK293, compound at 25 μM; receptor activated to EC80 with the corresponding agonist; read-out: screening result against bitter receptor 51
How it was run: as §1

[11] = system: hT2R55; assay: hT2R panel inhibition, transient HEK293 G16g44, agonist Cinchonine 150 μM; format: cell-based, human; details: compound at 25 μM; receptor activated to EC80 with the corresponding agonist
How it was run: as §1

[12] = target: hT2R61 (Homo sapiens (Human), UniProt P59537); assay: hT2R panel inhibition, transient HEK293 G16g44, agonist Aristolochic Acid 25 nM; format: cell-based; details: HEK293, compound at 25 μM
How it was run: as §1

[13] = system: hT2R63; assay: hT2R panel inhibition, transient HEK293 G16g44, agonist Caffeine 1 mM or Andrographolide 100 μM; format: cell-based, human; details: compound at 25 μM; receptor activated to EC80 with the corresponding agonist
How it was run: as §1

[14] = target: hT2R64 (Homo sapiens (Human), UniProt P59538); assay: hT2R panel inhibition, transient HEK293 G16g44, agonist Aristolochic Acid 1 μM; format: cell-based; details: HEK293, compound at 25 μM
How it was run: as §1

[15] = system: hT2R65; assay: hT2R panel inhibition, transient HEK293 G16g44, agonist Oleuropein 1 mM; format: cell-based, human; details: compound at 25 μM; receptor activated to EC80 with the corresponding agonist
How it was run: as §1

[16] = system: hT2R67; assay: hT2R panel inhibition, transient HEK293 G16g44, agonist Andrographolide 5 μM; format: cell-based, human; details: compound at 25 μM; receptor activated to EC80 with the corresponding agonist
How it was run: as §1

[17] = target: hT2R71 (Homo sapiens (Human), UniProt P59536); assay: hT2R panel inhibition, transient HEK293 G16g44, agonist Picric Acid 10 μM; format: cell-based; details: HEK293, compound at 25 μM; receptor activated to EC80 with the corresponding agonist; read-out: screening result against bitter receptor 71
How it was run: as §1

[18] = system: hT2R54; assay: hT2R panel inhibition, transient HEK293 G16g44, agonist Ranitidine 5 mM; format: cell-based, human; details: compound at 25 μM; receptor activated to EC80 with the corresponding agonist
How it was run: as §1

[19] = target: hT2R75 (Homo sapiens (Human), UniProt P59540); assay: hT2R panel inhibition, transient HEK293 G16g44, agonist Strychnine 1 μM; format: cell-based; details: HEK293, read-out: screening result against bitter receptor 75, compound at 25 μM; receptor activated to EC80 with the corresponding agonist
[20] = read-out: IC50 on hT2R14 bitter receptor
[21] = receptor activated to EC80 with the corresponding agonist, read-out: screening result against bitter receptor 3
[22] = receptor activated to EC80 with the corresponding agonist, read-out: screening result against bitter receptor 5
[23] = receptor activated to EC80 with the corresponding agonist, read-out: screening result against bitter receptor 7
[24] = receptor activated to EC80 with the corresponding agonist, read-out: screening result against bitter receptor 13
[25] = receptor activated to EC80 with the corresponding agonist, read-out: screening result against bitter receptor 14
[26] = receptor activated to EC80 with the corresponding agonist, read-out: screening result against bitter receptor 61
[27] = receptor activated to EC80 with the corresponding agonist, read-out: screening result against bitter receptor 64

hT2R71, sequence (P59536 whole entry): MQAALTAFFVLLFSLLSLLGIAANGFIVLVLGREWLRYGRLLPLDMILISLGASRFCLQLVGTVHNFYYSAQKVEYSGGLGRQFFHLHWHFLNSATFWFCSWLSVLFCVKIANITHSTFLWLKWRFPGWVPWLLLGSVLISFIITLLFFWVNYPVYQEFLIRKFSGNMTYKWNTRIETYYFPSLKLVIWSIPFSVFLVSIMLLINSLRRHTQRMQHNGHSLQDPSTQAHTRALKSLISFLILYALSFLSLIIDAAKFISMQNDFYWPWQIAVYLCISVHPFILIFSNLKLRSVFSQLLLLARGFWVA
hT2R13, sequence (Q9NYV9 whole entry): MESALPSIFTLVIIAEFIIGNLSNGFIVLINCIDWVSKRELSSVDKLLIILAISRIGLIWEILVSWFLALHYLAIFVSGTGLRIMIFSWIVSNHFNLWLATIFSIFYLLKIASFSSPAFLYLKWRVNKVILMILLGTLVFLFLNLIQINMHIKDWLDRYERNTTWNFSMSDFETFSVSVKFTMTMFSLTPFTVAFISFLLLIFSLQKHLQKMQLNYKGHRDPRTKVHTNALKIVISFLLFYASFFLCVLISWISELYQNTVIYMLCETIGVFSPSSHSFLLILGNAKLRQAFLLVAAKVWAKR
hT2R16, sequence (Q9NYV7 whole entry): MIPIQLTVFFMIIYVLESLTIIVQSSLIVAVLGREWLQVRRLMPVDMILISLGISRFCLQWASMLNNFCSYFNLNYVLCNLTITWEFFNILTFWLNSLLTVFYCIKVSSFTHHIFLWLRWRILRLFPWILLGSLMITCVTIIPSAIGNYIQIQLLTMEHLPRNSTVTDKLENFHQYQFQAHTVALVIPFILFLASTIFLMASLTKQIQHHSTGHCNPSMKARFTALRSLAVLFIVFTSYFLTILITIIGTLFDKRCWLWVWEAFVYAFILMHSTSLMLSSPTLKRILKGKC
hT2R7, sequence (Q9NYW3 whole entry): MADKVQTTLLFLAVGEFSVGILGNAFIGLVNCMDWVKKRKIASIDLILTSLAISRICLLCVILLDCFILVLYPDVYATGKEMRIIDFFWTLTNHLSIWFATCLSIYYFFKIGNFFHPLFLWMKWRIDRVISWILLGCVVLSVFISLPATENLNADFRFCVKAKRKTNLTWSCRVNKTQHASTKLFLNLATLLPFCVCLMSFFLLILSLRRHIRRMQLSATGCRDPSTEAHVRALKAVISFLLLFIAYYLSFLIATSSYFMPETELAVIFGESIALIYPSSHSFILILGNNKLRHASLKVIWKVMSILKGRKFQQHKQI
hT2R5, sequence (Q9NYW4 whole entry): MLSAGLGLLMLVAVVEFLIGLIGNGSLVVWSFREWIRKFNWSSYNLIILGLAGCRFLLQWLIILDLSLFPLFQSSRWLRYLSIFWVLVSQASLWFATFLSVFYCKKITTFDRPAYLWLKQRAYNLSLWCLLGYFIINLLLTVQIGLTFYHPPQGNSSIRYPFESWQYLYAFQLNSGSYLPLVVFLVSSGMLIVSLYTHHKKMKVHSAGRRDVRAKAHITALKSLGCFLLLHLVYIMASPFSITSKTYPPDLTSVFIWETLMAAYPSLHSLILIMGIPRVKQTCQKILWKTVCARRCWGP
hT2R61, sequence (P59537 whole entry): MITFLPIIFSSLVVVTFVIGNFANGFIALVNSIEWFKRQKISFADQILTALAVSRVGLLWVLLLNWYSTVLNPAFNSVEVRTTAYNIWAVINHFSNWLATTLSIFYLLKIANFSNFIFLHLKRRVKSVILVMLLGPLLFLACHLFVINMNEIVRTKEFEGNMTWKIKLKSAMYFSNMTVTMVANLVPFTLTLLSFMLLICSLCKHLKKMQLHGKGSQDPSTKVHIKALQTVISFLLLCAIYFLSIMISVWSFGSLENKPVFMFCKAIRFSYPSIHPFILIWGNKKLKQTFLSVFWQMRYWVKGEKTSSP
T1 sequence (Q9NYV8 whole entry): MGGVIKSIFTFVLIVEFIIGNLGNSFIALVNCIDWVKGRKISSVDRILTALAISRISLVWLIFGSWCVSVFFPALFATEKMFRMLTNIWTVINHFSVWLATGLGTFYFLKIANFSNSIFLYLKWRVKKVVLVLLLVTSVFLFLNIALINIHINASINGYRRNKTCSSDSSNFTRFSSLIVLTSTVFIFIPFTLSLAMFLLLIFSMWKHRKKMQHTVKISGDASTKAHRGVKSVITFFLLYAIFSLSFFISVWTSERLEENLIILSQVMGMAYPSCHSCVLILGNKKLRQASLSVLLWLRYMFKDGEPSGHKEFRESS
hT2R64, sequence (P59538 whole entry): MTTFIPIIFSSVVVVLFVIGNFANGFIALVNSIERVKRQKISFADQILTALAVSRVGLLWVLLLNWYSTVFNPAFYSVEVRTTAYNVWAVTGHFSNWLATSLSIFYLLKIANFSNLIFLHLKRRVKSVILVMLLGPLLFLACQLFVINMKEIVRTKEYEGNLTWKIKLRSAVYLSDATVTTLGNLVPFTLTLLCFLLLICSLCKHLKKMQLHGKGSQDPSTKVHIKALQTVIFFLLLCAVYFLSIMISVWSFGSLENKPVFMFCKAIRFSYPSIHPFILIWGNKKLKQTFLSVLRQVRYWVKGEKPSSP
hT2R10, sequence (Q9NYW0 whole entry): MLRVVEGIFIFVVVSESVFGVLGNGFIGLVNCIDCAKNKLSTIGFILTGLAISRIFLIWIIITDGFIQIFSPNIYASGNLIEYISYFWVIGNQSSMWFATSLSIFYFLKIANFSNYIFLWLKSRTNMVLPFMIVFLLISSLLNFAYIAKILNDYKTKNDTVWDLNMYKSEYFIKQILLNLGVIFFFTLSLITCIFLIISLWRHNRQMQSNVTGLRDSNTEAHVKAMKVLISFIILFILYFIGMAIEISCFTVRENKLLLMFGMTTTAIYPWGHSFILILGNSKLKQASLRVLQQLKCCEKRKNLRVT
hT2R51, sequence (P59533 whole entry): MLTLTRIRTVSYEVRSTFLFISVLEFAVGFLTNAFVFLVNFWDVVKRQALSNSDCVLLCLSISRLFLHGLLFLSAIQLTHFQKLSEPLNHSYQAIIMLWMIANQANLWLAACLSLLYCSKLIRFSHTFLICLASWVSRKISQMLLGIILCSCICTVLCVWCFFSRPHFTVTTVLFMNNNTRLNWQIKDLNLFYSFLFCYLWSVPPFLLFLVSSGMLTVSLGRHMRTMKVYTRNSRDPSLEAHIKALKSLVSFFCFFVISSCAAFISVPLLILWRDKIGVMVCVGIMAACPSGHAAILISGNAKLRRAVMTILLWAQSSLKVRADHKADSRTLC
hT2R3, sequence (Q9NYW6 whole entry): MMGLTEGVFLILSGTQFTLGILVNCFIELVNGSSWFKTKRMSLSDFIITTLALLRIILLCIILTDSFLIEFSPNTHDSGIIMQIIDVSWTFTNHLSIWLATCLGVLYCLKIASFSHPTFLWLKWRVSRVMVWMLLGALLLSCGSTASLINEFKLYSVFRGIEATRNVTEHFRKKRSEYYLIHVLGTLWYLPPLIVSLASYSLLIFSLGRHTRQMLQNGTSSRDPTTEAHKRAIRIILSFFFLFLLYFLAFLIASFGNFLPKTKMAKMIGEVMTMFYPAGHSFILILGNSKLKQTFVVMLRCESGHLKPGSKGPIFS
hT2R75, sequence (P59540 whole entry): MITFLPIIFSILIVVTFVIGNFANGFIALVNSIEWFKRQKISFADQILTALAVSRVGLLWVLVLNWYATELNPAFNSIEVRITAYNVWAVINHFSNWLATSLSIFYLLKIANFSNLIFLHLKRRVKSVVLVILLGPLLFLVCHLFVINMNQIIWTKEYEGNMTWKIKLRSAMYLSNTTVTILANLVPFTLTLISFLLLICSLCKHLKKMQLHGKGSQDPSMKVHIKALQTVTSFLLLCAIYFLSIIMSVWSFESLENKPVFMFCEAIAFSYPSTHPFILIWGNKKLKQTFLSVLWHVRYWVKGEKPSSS

## COc1ccc(CN(Cc2ccc(F)c(OC)c2)S(=O)(=O)c2ccc(C(=O)O)cc2)cc1 [Example 5-50, 4-(N-(4-fluoro-3-methoxybenzyl)-N-(4-methoxybenzyl)sulfamoyl)-benzoic acid]
[1]; [20]
  IC50: 1.65 µM
[2]; [21]
  inhibition at 25 µM: 40 to 60%
[3]; [22]
  inhibition at 25 µM: 20 to 40%
[4]; [23]
  inhibition at 25 µM: 20 to 40%
[5]
  inhibition at 25 µM: 20 to 40%
[6]; [24]
  inhibition at 25 µM: 20 to 40%
[7]; [25]
  inhibition at 25 µM: > 80%
[8]
  inhibition at 25 µM: 40 to 60%
[9]
  screening result against bitter receptor 44: +++ (60% to 80% inhibition = +++)
[10]
  inhibition at 25 µM: 20 to 40%
[11]
  screening result against bitter receptor 55: ++++ (80% or greater inhibition = ++++)
[12]; [26]
  inhibition at 25 µM: > 80%
[13]
  screening result against bitter receptor 63: ++++ (80% or greater inhibition = ++++)
[14]; [27]
  inhibition at 25 µM: 60 to 80%
[15]
  screening result against bitter receptor 65: ++ (40% to 60% inhibition = ++)
[16]
  screening result against bitter receptor 67: ++ (40% to 60% inhibition = ++)
[17]
  inhibition at 25 µM: 60 to 80%

## O=C(O)c1ccc(S(=O)(=O)N(Cc2ccccc2)Cc2ccccc2)cc1 [Example 5-28, 4-(N,N-dibenzylsulfamoyl)benzoic acid]
[1]; [20]
  IC50: 7.74 µM
[6]; [24]
  inhibition at 25 µM: 20 to 40%
[7]; [25]
  inhibition at 25 µM: > 80%
[8]
  inhibition at 25 µM: 20 to 40%
[9]
  screening result against bitter receptor 44: + (20% to 40% inhibition = +)
[10]
  inhibition at 25 µM: 40 to 60%
[18]
  screening result against bitter receptor 54: + (20% to 40% inhibition = +)
[11]
  screening result against bitter receptor 55: ++++ (80% or greater inhibition = ++++)
[12]; [26]
  inhibition at 25 µM: 40 to 60%
[13]
  screening result against bitter receptor 63: ++++ (80% or greater inhibition = ++++)
[14]; [27]
  inhibition at 25 µM: > 80%
[16]
  screening result against bitter receptor 67: + (20% to 40% inhibition = +)
[17]
  inhibition at 25 µM: 40 to 60%
[19]
  inhibition at 25 µM: 20 to 40%

## COc1ccc(CN(Cc2ccc(OC)c(F)c2)S(=O)(=O)c2ccc(C(=O)O)cc2)cc1 [Example 5-41, 4-(N-(3-fluoro-4-methoxybenzyl)-N-(4-methoxybenzyl)sulfamoyl)-benzoic acid]
[1]; [20]
  IC50: 1.11 µM
[2]; [21]
  inhibition at 25 µM: 40 to 60%
[3]; [22]
  inhibition at 25 µM: 20 to 40%
[5]
  inhibition at 25 µM: 40 to 60%
[6]; [24]
  inhibition at 25 µM: 20 to 40%
[7]; [25]
  inhibition at 25 µM: > 80%
[8]
  inhibition at 25 µM: 20 to 40%
[9]
  screening result against bitter receptor 44: +++ (60% to 80% inhibition = +++)
[18]
  screening result against bitter receptor 54: + (20% to 40% inhibition = +)
[11]
  screening result against bitter receptor 55: +++ (60% to 80% inhibition = +++)
[12]; [26]
  inhibition at 25 µM: > 80%
[13]
  screening result against bitter receptor 63: ++++ (80% or greater inhibition = ++++)
[14]; [27]
  inhibition at 25 µM: 60 to 80%
[17]
  inhibition at 25 µM: 40 to 60%

## Cc1cc2c(cc1S(=O)(=O)Nc1ccc(F)cc1)n(C)c(=O)c(=O)n2C [Example 6-10, N-(4-fluorophenyl)-1,4,7-trimethyl-2,3-dioxo-1,2,3,4-tetrahydroquinoxaline-6-sulfonamide]
[1]; Table D, read-out: hT2R14 IC50
  IC50: 12.6 µM
[2]; receptor activated to EC80 with agonist, read-out: inhibition of bitter receptor 3
  inhibition at 25 µM: 20 to 40%
[3]; receptor activated to EC80 with agonist, read-out: inhibition of bitter receptor 5
  inhibition at 25 µM: 20 to 40%
[4]; receptor activated to EC80 with agonist, read-out: inhibition of bitter receptor 7
  inhibition at 25 µM: 20 to 40%
[6]; receptor activated to EC80 with agonist, read-out: inhibition of bitter receptor 13
  inhibition at 25 µM: 40 to 60%
[7]; receptor activated to EC80 with agonist, read-out: inhibition of bitter receptor 14
  inhibition at 25 µM: 40 to 60%
[9]; receptor activated to EC80 with agonist
  inhibition of bitter receptor 44: + (20% to 40% inhibition = +)
[12]; receptor activated to EC80 with agonist, read-out: inhibition of bitter receptor 61
  inhibition at 25 µM: 20 to 40%
[14]; receptor activated to EC80 with agonist, read-out: inhibition of bitter receptor 64
  inhibition at 25 µM: 20 to 40%

## O=C(O)c1ccc(S(=O)(=O)N(Cc2ccccc2)Cc2ccc3c(c2)OCO3)cc1 [Example 5-93, 4-(N-(benzo[d][1,3]dioxol-5-ylmethyl)-N-benzylsulfamoyl)benzoic acid]
[3]; [22]
  inhibition at 25 µM: 20 to 40%
[4]; [23]
  inhibition at 25 µM: 20 to 40%
[5]
  inhibition at 25 µM: 40 to 60%
[6]; [24]
  inhibition at 25 µM: 20 to 40%
[7]; [25]
  inhibition at 25 µM: > 80%
[8]
  inhibition at 25 µM: 40 to 60%
[9]
  screening result against bitter receptor 44: +++ (60% to 80% inhibition = +++)
[10]
  inhibition at 25 µM: 40 to 60%
[18]
  screening result against bitter receptor 54: +++ (60% to 80% inhibition = +++)
[11]
  screening result against bitter receptor 55: ++++ (80% or greater inhibition = ++++)
[12]; [26]
  inhibition at 25 µM: > 80%
[13]
  screening result against bitter receptor 63: ++++ (80% or greater inhibition = ++++)
[14]; [27]
  inhibition at 25 µM: > 80%
[16]
  screening result against bitter receptor 67: ++ (40% to 60% inhibition = ++)
[17]
  inhibition at 25 µM: 60 to 80%
